According to patent US20030207812A1, “Cd45 inhibitors” (priority 2002, published 2003):
Where a SMILES comes first, the peptide text is derived from it. The star is where a group is joined. 3Phenanthroyl(9,10-dioxo) = O=C1C(=O)c2ccc(C(=O)*)cc2-c2ccccc21

What was measured:
[1] = molecular target: T1, CD45 (Homo sapiens, UniProt P08575); experiment: Phosphatase assay using pNPP as substrate; type: biochemical; conditions: read-out: pNPP IC50
T1 construct: incubating the cytosolic portion of CD45 with the compounds and p-nitrophenyl phosphate (pNPP); purchased BIOMOL (Plymouth Meeting, Pa.)
T1 sequence (P08575 599-1306 limits assumed): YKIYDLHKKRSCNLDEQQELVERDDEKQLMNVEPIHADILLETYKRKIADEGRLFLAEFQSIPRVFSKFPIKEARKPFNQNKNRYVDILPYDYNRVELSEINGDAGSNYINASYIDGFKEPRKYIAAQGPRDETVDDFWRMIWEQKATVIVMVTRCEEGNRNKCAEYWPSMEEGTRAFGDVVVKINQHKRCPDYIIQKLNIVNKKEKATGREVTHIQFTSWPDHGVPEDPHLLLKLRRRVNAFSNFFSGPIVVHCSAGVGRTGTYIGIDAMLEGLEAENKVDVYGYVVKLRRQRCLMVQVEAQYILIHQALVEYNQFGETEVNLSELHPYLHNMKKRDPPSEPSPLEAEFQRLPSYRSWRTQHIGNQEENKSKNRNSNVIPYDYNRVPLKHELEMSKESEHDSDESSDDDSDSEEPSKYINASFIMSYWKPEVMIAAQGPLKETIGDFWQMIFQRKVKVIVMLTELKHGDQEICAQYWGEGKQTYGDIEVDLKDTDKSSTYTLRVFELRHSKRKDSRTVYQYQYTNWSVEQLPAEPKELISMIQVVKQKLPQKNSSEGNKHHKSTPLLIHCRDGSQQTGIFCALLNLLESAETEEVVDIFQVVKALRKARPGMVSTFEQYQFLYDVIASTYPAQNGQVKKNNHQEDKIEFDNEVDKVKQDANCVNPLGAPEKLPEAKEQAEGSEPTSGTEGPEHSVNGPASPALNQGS
Procedure: Phosphatase assay using pNPP as substrate:
CD45 enzyme was obtained from BIOMOL (Plymouth Meeting, Pa.). Phosphatase activity was assayed in a buffer containing final concentrations of 25 mM imidazole at pH 7.0, 50 mM NaCl, 2.5 mM ethylenediaminetetraacetic acid (“EDTA”), 5 mM dithiothreitol (“DTT”) and 10 μg/mL bovine serum albumin (“BSA”) using pNPP as a substrate.

[2] = molecular target: T1, CD45; experiment: Phosphatase assay using lck 10-mer as substrate; type: biochemical
Procedure, shortened: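 Enzyme incubated with lck phosphopeptide TEGQpYQPQP for 1.5 h at room temperature in 25 mM HEPES pH 7.2, 5 mM DTT, 10 μg/mL BSA, 5% DMSO final. Compounds tested from 30 to 0.01 μM. Released phosphate detected with malachite-type Green Reagent, absorbance at 620 nm after 30 min.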

[3] = in vitro; conditions: human
Procedure: (§1) Calcein-AM (Molecular Probes. Eugene, Oreg.) uptake, as a quantitative measure of cell viability, was used to evaluate the toxic effect of compounds on T cells.
(§2) The T-cell lymphoblasts were purified by separation over Lymphoprep, plated at 2×10^5/well in a round bottom 96-well plate containing RPMI with compound and incubated overnight at 37° C. in an incubator containing 5% CO2. The dilution scheme and culture media were the same as those used in the T-cell proliferation assay. After the incubation period, cells were washed with Dulbecco's phosphate-buffered saline (D-PBS) and incubated with 1 μM Calcein-AM for 30-45 mim in D-PBS as described in the technical sheet provided with The LIVE/DEAD Viability/Cytotoxicity Kit from Molecular Probes.

[4] = system: T cells (PBMC); experiment: cells; type: cell-based, human; conditions: human PBMC, OKT3 30 ng/mL, [3H]thymidine; read-out: T cell prolif. IC50
[5] = Cytotoxicity assay (Calcein-AM uptake); conditions: human, PHA-expanded T-cell lymphoblasts from PBMC
Procedure: as §1, §2

| Compound | IC50 ([1]; pH 7) [µM] | IC50 [2] [µM] | CC50 [3] [µM] | IC50 ([1]; CD45 phosphatase, pNPP substrate, pH 7.0) [µM] | IC50 ([2]; CD45 phosphatase, lck carboxy-terminal peptide TEGQpYQPQP substrate, pH 7.2, read-out: Ick IC50) [µM] | IC50 [4] [µM] | CC50 [5] [µM] |
| --- | --- | --- | --- | --- | --- | --- | --- |
| NC(=O)CC[C@H](NC(=O)[C@@H]1CCCN1C(=O)[C@H](CCC(N)=O)NC(=O)[C@H](CCC(=O)O)NC(=O)c1ccc2c(c1)-c1ccccc1C(=O)C2=O)C(=O)N1CCC[C@H]1C(=O)O [Example 24] ({3Phenanthroyl(9,10-dioxo)}-EQPQP-OH) | 0.6 | 2.4 | > 30 | – | – | – | – |
| NC(=O)CC[C@H](NC(=O)[C@@H]1CCCN1C(=O)[C@H](CCC(N)=O)NC(=O)CNC(=O)c1ccc2c(c1)-c1ccccc1C(=O)C2=O)C(=O)N1CCC[C@H]1C(=O)O [Example 25] ({3Phenanthroyl(9,10-dioxo)}-GQPQP-OH) | 1.2 | 2.5 | > 30 | – | – | – | – |
| NC(=O)CC[C@H](NC(=O)c1ccc2c(c1)-c1ccccc1C(=O)C2=O)C(=O)N[C@@H](CCC(N)=O)C(=O)N1CCC[C@H]1C(=O)N[C@@H](CCC(N)=O)C(=O)N1CCC[C@H]1C(=O)O [Example 26] ({3Phenanthroyl(9,10-dioxo)}-QQPQP-OH) | 0.7 | 2.3 | > 30 | – | – | – | – |
| NC(=O)CC[C@H](NC(=O)[C@@H]1CCCN1C(=O)[C@H](CCC(=O)O)NC(=O)CNC(=O)c1ccc2c(c1)-c1ccccc1C(=O)C2=O)C(=O)N1CCC[C@H]1C(=O)O [Example 27] ({3Phenanthroyl(9,10-dioxo)}-GEPQP-OH) | 0.7 | 3.1 | > 30 | – | – | – | – |
| NC(=O)CC[C@H](NC(=O)c1ccc2c(c1)-c1ccccc1C(=O)C2=O)C(=O)N[C@@H](CCC(=O)O)C(=O)N1CCC[C@H]1C(=O)N[C@@H](CCC(N)=O)C(=O)N1CCC[C@H]1C(=O)O [Example 28] ({3Phenanthroyl(9,10-dioxo)}-QEPQP-OH) | 1.1 | 2.2 | > 30 | – | – | – | – |
| NC(=O)CC[C@H](NC(=O)CNC(=O)c1ccc2c(c1)-c1ccccc1C(=O)C2=O)C(=O)NCC(=O)N[C@@H](CCC(N)=O)C(=O)N1CCC[C@H]1C(=O)O [Example 29] ({3Phenanthroyl(9,10-dioxo)}-GQGQP-OH) | 1.1 | 2.5 | > 30 | – | – | – | – |
| NC(=O)CC[C@H](NC(=O)c1ccc2c(c1)-c1ccccc1C(=O)C2=O)C(=O)N[C@@H](CCC(N)=O)C(=O)NCC(=O)N[C@@H](CCC(N)=O)C(=O)N1CCC[C@H]1C(=O)O [Example 30] ({3Phenanthroyl(9,10-dioxo)}-QQGQP-OH) | 0.9 | 1.7 | > 30 | – | – | – | – |
| NC(=O)CC[C@H](NC(=O)[C@H](CCC(=O)O)NC(=O)c1ccc2c(c1)-c1ccccc1C(=O)C2=O)C(=O)NCC(=O)N[C@@H](CCC(N)=O)C(=O)N1CCC[C@H]1C(=O)O [Example 31] ({3Phenanthroyl(9,10-dioxo)}-EQGQP-OH) | 0.6 | 2.5 | > 30 | – | – | – | – |
| NC(=O)CC[C@H](NC(=O)CNC(=O)[C@H](CCC(=O)O)NC(=O)CNC(=O)c1ccc2c(c1)-c1ccccc1C(=O)C2=O)C(=O)N1CCC[C@H]1C(=O)O [Example 32] ({3Phenanthroyl(9,10-dioxo)}-GEGQP-OH) | 0.7 | 2.3 | > 30 | – | – | – | – |
| NC(=O)CC[C@H](NC(=O)c1ccc2c(c1)-c1ccccc1C(=O)C2=O)C(=O)N[C@@H](CCC(=O)O)C(=O)NCC(=O)N[C@@H](CCC(N)=O)C(=O)N1CCC[C@H]1C(=O)O [Example 33] ({3Phenanthroyl(9,10-dioxo)}-QEGQP-OH) | 1.1 | 2.5 | > 30 | – | – | – | – |
| NC(=O)CC[C@H](NC(=O)CNC(=O)c1ccc2c(c1)-c1ccccc1C(=O)C2=O)C(=O)NCC(=O)N[C@@H](CCC(=O)O)C(=O)N1CCC[C@H]1C(=O)O [Example 35] ({3Phenanthroyl(9,10-dioxo)}-GQGEP-OH) | 0.9 | 1.4 | > 30 | – | – | – | – |
| O=C(O)CNC(=O)c1ccc2c(c1)C(=O)C(=O)c1ccccc1-2 [Example 105, [(9,10-Dioxo-9,10-dihydro-phenanthrene-2-carbonyl)-amino]-acetic acid] | – | – | – | 0.8 | 2.2 | 4.4 | > 30 |
